In PubChem BioAssay AID256 (DTP/NCI, 2004) one finds T/C data, which are given here for 21 compounds.

The test system of this test is CD2F1 mice, L1210 leukemia ip, survival T/C. The test is described as follows: NCI In Vivo Anticancer Drug Screen. Data for tumor model L1210 Leukemia (intraperitoneal) in CD2F1 (CDF1) mice. To be noted: higher = longer survival. Put shortly:
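Mice carrying a transplanted tumor received test compound or vehicle alone. The value is the measurement in the treated group divided by that in the vehicle-treated control group.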

[1] abbreviates: endpoint: mean survival time, dose: 100.0 mg/kg/injection, schedule: Q04DX003 (ip), vehicle: saline with Tween-80.
[2] abbreviates: endpoint: mean survival time, dose: 200.0 mg/kg/injection, schedule: Q04DX003 (ip), vehicle: saline with Tween-80.
Setting [3] is: endpoint: mean survival time, dose: 400.0 mg/kg/injection, schedule: Q04DX003 (ip), vehicle: saline with Tween-80.
[4] abbreviates: endpoint: mean survival time, dose: 100.0 mg/kg/injection, schedule: Q01DX001 (ip), vehicle: saline with Tween-80.
Where [5] appears, read: endpoint: mean survival time, dose: 200.0 mg/kg/injection, schedule: Q01DX001 (ip), vehicle: saline with Tween-80.
Setting [6] is: endpoint: mean survival time, dose: 400.0 mg/kg/injection, schedule: Q01DX001 (ip), vehicle: saline with Tween-80.
Where [7] appears, read: endpoint: mean survival time, dose: 12.5 mg/kg/injection, schedule: Q01DX009 (ip), vehicle: saline with Tween-80.
Where [8] appears, read: endpoint: mean survival time, dose: 50.0 mg/kg/injection, schedule: Q01DX009 (ip), vehicle: saline with Tween-80.
The mark [9] stands for this setting: endpoint: mean survival time, dose: 100.0 mg/kg/injection, schedule: Q01DX009 (ip), vehicle: saline with Tween-80.
The mark [10] stands for this setting: endpoint: mean survival time, dose: 200.0 mg/kg/injection, schedule: Q01DX009 (ip), vehicle: saline with Tween-80.

Values joined by “and” are separate entries in the source; they are usually repeats but may differ in a detail not shown here. Equal values may be shown once. Inconclusive results and toxic doses are left out.

For `NC(=O)c1cccnc1`, the T/C runs as follows: (endpoint: mean survival time, dose: 175.0 mg/kg/injection, schedule: Q04HX040 (ip), vehicle: water) 109 % of control; (endpoint: mean survival time, dose: 350.0 mg/kg/injection, schedule: Q04HX040 (ip), vehicle: water) 103 % of control.

Turning to `O=CC(CO)OC(C=O)n1cnc2c(=O)[nH]c(=O)[nH]c21` (stereo not drawn), the T/C (endpoint: mean survival time, dose: 12.5 mg/kg/injection, schedule: Q01DX005 (ip), vehicle: water) was 101 % of control; the T/C (endpoint: mean survival time, dose: 25.0 mg/kg/injection, schedule: Q01DX005 (ip), vehicle: water) was 106 % of control; the T/C (endpoint: mean survival time, dose: 50.0 mg/kg/injection, schedule: Q01DX005 (ip), vehicle: water) was 106 % of control; the T/C (endpoint: mean survival time, dose: 100.0 mg/kg/injection, schedule: Q01DX005 (ip), vehicle: water) is 115 % of control.

Take `CCOC(OCC)c1ccccc1` (tested in a mixture with another compound): the T/C is 97 % of control under setting [1], 97 % of control under setting [2] and 97 % of control under setting [3].

Take `COc1ccc(Cl)cc1NC(=O)N/N=C(\C)CC(C)C`: the T/C under setting [4] is 105 % of control, the T/C under setting [5] is 95 % of control and the T/C under setting [6] was 101 % of control.

Take `Nc1nc(N)c2cc(S(=O)(=O)c3ccccc3)ccc2n1`: the T/C (endpoint: median survival time, dose: 25.0 mg/kg/injection, schedule: Q01DX009 (ip), vehicle: saline with Tween-80) was 98 % of control; the T/C (endpoint: median survival time, dose: 50.0 mg/kg/injection, schedule: Q01DX009 (ip), vehicle: saline with Tween-80) is 100 % of control; the T/C (endpoint: median survival time, dose: 100.0 mg/kg/injection, schedule: Q01DX009 (ip), vehicle: saline with Tween-80) was 102 % of control; the T/C (endpoint: median survival time, dose: 200.0 mg/kg/injection, schedule: Q01DX009 (ip), vehicle: saline with Tween-80) was 121 % of control.

Consider `O=C(Nc1cccc2ccccc12)OCCCBr`, for which the T/C is, setting by setting: (endpoint: mean survival time, dose: 3.13 mg/kg/injection, schedule: Q01DX009 (ip), vehicle: saline with Tween-80) 97 % of control; (endpoint: mean survival time, dose: 6.25 mg/kg/injection, schedule: Q01DX009 (ip), vehicle: saline with Tween-80) 103 % of control; under setting [7], 94 % of control and 101 % of control; under setting [8], 86 % of control.

`COc1ccc2[nH]c(-c3ccccc3)cc2c1`: the T/C is, setting by setting: under setting [1], 93 % of control; under setting [2], 88 % of control; under setting [3], 98 % of control.

On to `COC(=O)CSC(=S)N(C)C`, for which the T/C is 98 % of control under setting [1], 100 % of control under setting [2] and 90 % of control under setting [3].

In the case of `O=C(O)C(O)CO.O=C(O)C(O)CO.[NH-]C1CCCCC1[NH-].[Pt+2]` (stereo not drawn), the T/C (endpoint: mean survival time, dose: 2.5 mg/kg/injection, schedule: Q04DX003 (ip), vehicle: other) was 124 % of control.

For `CSc1ncnc2c1cnn2C1OC(COC(C)=O)C(OC(C)=O)C1OC(C)=O` (stereo not drawn), the T/C (endpoint: median survival time, dose: 9.0 mg/kg/injection, schedule: Q01DX005 (ip), vehicle: distilled water + Tween-80) is 101 % of control; the T/C (endpoint: median survival time, dose: 9.0 mg/kg/injection, schedule: Q01DX009 (ip), vehicle: distilled water + Tween-80) was 100 % of control; the T/C (endpoint: median survival time, dose: 18.0 mg/kg/injection, schedule: Q01DX005 (ip), vehicle: distilled water + Tween-80) is 98 % of control; the T/C (endpoint: median survival time, dose: 18.0 mg/kg/injection, schedule: Q01DX009 (ip), vehicle: distilled water + Tween-80) was 101 % of control; the T/C (endpoint: median survival time, dose: 36.0 mg/kg/injection, schedule: Q01DX005 (ip), vehicle: distilled water + Tween-80) was 108 % of control; the T/C (endpoint: median survival time, dose: 36.0 mg/kg/injection, schedule: Q01DX009 (ip), vehicle: distilled water + Tween-80) is 100 % of control. The T/C was 107 % of control (endpoint: median survival time, dose: 72.0 mg/kg/injection, schedule: Q01DX009 (ip), vehicle: distilled water + Tween-80); 118 % of control (endpoint: median survival time, dose: 144.0 mg/kg/injection, schedule: Q01DX005 (ip), vehicle: distilled water + Tween-80); 113 % of control (endpoint: median survival time, dose: 144.0 mg/kg/injection, schedule: Q01DX009 (ip), vehicle: distilled water + Tween-80).

With `Cc1cc(C)nc(NS(=O)(=O)c2ccc(NCN3C(=O)c4ccccc4C3=O)cc2)n1`, the T/C is 101 % of control under setting [4]; 96 % of control under setting [9]; 107 % of control under setting [5]; 94 % of control under setting [10]; 107 % of control under setting [6]; 90 % of control (endpoint: mean survival time, dose: 400.0 mg/kg/injection, schedule: Q01DX009 (ip), vehicle: saline with Tween-80).

Regarding `Cc1ccc2nc(NC(=O)N(CCCl)N=O)sc2c1`, the T/C reads like this: (endpoint: mean survival time, dose: 118.0 mg/kg/injection, schedule: Q01DX009 (ip), vehicle: other) 197 % of control; (endpoint: mean survival time, dose: 177.0 mg/kg/injection, schedule: Q01DX001 (ip), vehicle: other) 162 % of control; (endpoint: mean survival time, dose: 177.0 mg/kg/injection, schedule: Q01DX009 (ip), vehicle: other) 96 % of control; (endpoint: mean survival time, dose: 266.0 mg/kg/injection, schedule: Q01DX001 (ip), vehicle: other) 154 % of control; (endpoint: mean survival time, dose: 266.0 mg/kg/injection, schedule: Q01DX009 (ip), vehicle: other) 111 % of control; (endpoint: mean survival time, dose: 400.0 mg/kg/injection, schedule: Q01DX001 (ip), vehicle: other) 156 % of control. The T/C (endpoint: mean survival time, dose: 400.0 mg/kg/injection, schedule: Q01DX009 (ip), vehicle: other) was 88 % of control and the T/C (endpoint: mean survival time, dose: 600.0 mg/kg/injection, schedule: Q01DX001 (ip), vehicle: other) was 234 % of control.

Turning to `C=CCN(CC=C)CCSC(=S)NCCOC`, the T/C is, setting by setting: under setting [8], 97 % of control; under setting [9], 113 % of control; under setting [10], 97 % of control.

Regarding `Cc1sc(C)c(CCl)c1CCl`, the T/C reads like this: under setting [7], 104 % of control; (endpoint: mean survival time, dose: 25.0 mg/kg/injection, schedule: Q01DX009 (ip), vehicle: saline with Tween-80) 108 % of control; under setting [8], 98 % of control.

For `CCCCCC#CC1OC12CCCCC2` (stereo not drawn), the T/C was 97 % of control (endpoint: mean survival time, dose: 12.5 mg/kg/injection, schedule: Q01DX009 (sc), vehicle: saline with Tween-80); 104 % of control (endpoint: mean survival time, dose: 25.0 mg/kg/injection, schedule: Q01DX009 (sc), vehicle: saline with Tween-80); 98 % of control (endpoint: mean survival time, dose: 50.0 mg/kg/injection, schedule: Q01DX009 (sc), vehicle: saline with Tween-80); 103 % of control (endpoint: mean survival time, dose: 100.0 mg/kg/injection, schedule: Q01DX009 (sc), vehicle: saline with Tween-80); 98 % of control (endpoint: mean survival time, dose: 200.0 mg/kg/injection, schedule: Q01DX009 (sc), vehicle: saline with Tween-80).

Turning to `O=C(O)c1cccc2ccc(F)cc12`, the T/C reads like this: (endpoint: median survival time, dose: 50.0 mg/kg/injection, schedule: Q04DX002 (ip), vehicle: saline with Tween-80) 100 % of control; (endpoint: median survival time, dose: 100.0 mg/kg/injection, schedule: Q04DX002 (ip), vehicle: saline with Tween-80) 100 % of control; (endpoint: median survival time, dose: 200.0 mg/kg/injection, schedule: Q04DX002 (ip), vehicle: saline with Tween-80) 100 % of control; (endpoint: median survival time, dose: 400.0 mg/kg/injection, schedule: Q04DX002 (ip), vehicle: saline with Tween-80) 88 % of control.

For the compound `CC/C(=N\[N+](C)(C)C)c1ccccc1`, the T/C is, setting by setting: (endpoint: mean survival time, dose: 18.8 mg/kg/injection, schedule: Q01DX009 (ip), vehicle: saline) 96 % of control; (endpoint: mean survival time, dose: 37.5 mg/kg/injection, schedule: Q01DX009 (ip), vehicle: saline) 91 % of control.

As to `ClCCOCCOc1ccc(C2CCCCC2)cc1`, the T/C was 97 % of control (endpoint: mean survival time, dose: 100.0 mg/kg/injection, schedule: Q04DX003 (ip), vehicle: saline sonified); 97 % of control (endpoint: mean survival time, dose: 200.0 mg/kg/injection, schedule: Q04DX003 (ip), vehicle: saline sonified); 92 % of control (endpoint: mean survival time, dose: 400.0 mg/kg/injection, schedule: Q04DX003 (ip), vehicle: saline sonified).

For `CCC[n+]1c(C)oc2ccc(-c3ccccc3)cc21`, the T/C by setting is: under setting [1], 100 % of control; under setting [2], 101 % of control.

For the compound `CC(C)C1=CC23CCC4C(C)(C(=O)O)CCCC4(C)C2CC1OO3` (stereo not drawn), the T/C is 93 % of control under setting [1], 92 % of control under setting [2] and 95 % of control under setting [3].

As to `O=c1c2ccccc2c(-c2ccccc2)nn1Cc1ccccc1`, the T/C is, setting by setting: under setting [1], 103 % of control; under setting [2], 108 % of control; under setting [3], 98 % of control.
